This note sets out measurements from paper PMC10770036, “Novel dual inhibitors of PARP and HDAC induce intratumoral STING-mediated antitumor immunity in triple-negative breast cancer” (Cell Death & Disease, 2024).

Experiment [1] concerns MDA-MB-436, MDA-MB-231, and MDA-MB-468 cells. Nature of the experiment: Colony formation assay. It counts as cell-based, human. The note with it: low dose. As for the experimental part:
MDA-MB-231, MDA-MB-436 and MDA-MB-468 cells were seeded at a density of 2,000 cells in 6-well plates and cultured overnight. […] The cells were fixed with 4% paraformaldehyde (Merck) for 1 h at room temperature and stained with 0.1% crystal violet (Beyotime Biotechnology) for 30 min. Under an inverted phase contrast microscope (Leica Microsystems, Heidelberg, Germany), cell colonies were photographed at 5× magnification. All these analyses were performed at least three times.

For a further experiment, the system named is CCL5 and CXCL10 mRNA. Nature of the experiment: RT-PCR of CCL5 and CXCL10 mRNA. The class given is cell-based, human. As to conditions: MDA-MB-436 and MDA-MB-468 cells, 48 h. As for the experimental part:
Total RNA was extracted using the Eastep Super Total RNA Extraction Kit (Promega, Charbonnières, France) according to the manufacturer’s protocol. Reverse transcription was performed using HyperScript RT SuperMix for qPCR (APExBIO, Houston, TX, USA). Gene expression was quantified with Hieff qPCR SYBR Green Master Mix (Yeason) on an ABI 7500 (Applied Biosystems, Grand Island, NY, USA). Data were then analyzed using the 2^-ΔΔCT method. The primers were designed and synthesized by Sangon Biotech, and the sequences are shown in Supporting Information Table S1.

In the next experiment the test system is MCF-7 cells. Nature of the experiment: MTT cell viability assay, MCF-7. The note with it: Homo sapiens, MCF7, 72 h, read-out: IC50 MCF-7.
The subject of a further experiment is MCF-10A cells. Nature of the experiment: MTT cell viability assay, MCF-10A. The note with it: Homo sapiens, 72 h, read-out: IC50 MCF-10A.
In a further experiment the test system is MDA-MB-436 cells. Nature of the experiment: MTT cell viability assay, MDA-MB-436. The note with it: Homo sapiens, MDA-MB-436, 72 h, read-out: IC50 MDA-MB-436. For orientation: Formazan colour is commonly taken as a measure of viable cells.
A further experiment relates to MDA-MB-231 cells. Nature of the experiment: MTT cell viability assay, MDA-MB-231. As to conditions: Homo sapiens, MDA-MB-231, 72 h, read-out: IC50 MDA-MB-231.
Another experiment deals with MDA-MB-468 cells. Nature of the experiment: MTT cell viability assay, MDA-MB-468. The note with it: Homo sapiens, MDA-MB-468, 72 h, read-out: IC50 MDA-MB-468.
Another experiment deals with 4T1 tumors. Nature of the experiment: Combination with anti-PD-L1 in syngeneic murine 4T1 model. It counts as in vivo, mice. As to conditions: syngeneic 4T1 model; B102 15 mg/kg or B302 50 mg/kg every 2 days; anti-PD-L1 100 μg every 5 days; intraperitoneal. An excerpt: MDA-MB-436 cells (5 × 10^6) were suspended in PBS and Matrigel (Corning) at a 1:1 ratio and orthotopically injected into the fat pads of 6- to 7-week-old female NOD-Prkdc^scid Il2rg^em1Smoc (M-NSG) mice from the Shanghai Model Organisms Center, Inc. MDA-MB-231 cells (5 × 10^6) were suspended in PBS orthotopically injected into the fat pads of 6- to 7-week-old female BALB/c nude mice from the Shanghai Model Organisms Center, Inc. 4T1 cells (1 × 10^6) were suspended in PBS and injected into the fat pads of 6- to 7-week-old male BALB/c mice from GemPharmatech Co., Ltd. […] For the MMTV-PyMT mice, fourteen 6-week-old female mice were randomly divided into two groups, and no blinding was performed. […] For the combination of B102 or B302 and anti-PD-L1 studies, the mice were randomly divided into four treatment groups without blinding: (1) vehicle; (2) B102 (15 mg/kg, every 2 days) or B302 (50 mg/kg, every 2 days); (3) anti-PD-L1 antibodies (100 μg, dissolved in PBS, every 5 days, Atezolizumab, Clone No.: 2B11D11, Shanghai Lollane biological technology Co., Ltd., Shanghai, China); or (4) combination of B102 or B302 and anti-PD-L1, all treatment via an intraperitoneal injection. Tumor size was monitored with a digital caliper, and tumor volume was calculated using the following equation: volume = (length × width^2)/2. […]

In general, IC50 refers to the midpoint of a concentration-inhibition curve.

Protocol for MCF-10A cells: (§1) The viability assay was measured by a 3-(4,5-dimethylthiazol-2-yl)−2,5-diphenyltetrazolium bromide (MTT) assay.
(§2) In brief, cells were seeded at a density of 6,000 cells in 96-well plates and cultured overnight. […] After aspiration of the medium, the formazan crystals were dissolved in 100 μL of DMSO. The absorbance at 490 nm was measured using a microplate reader (BioTek). All these analyses were performed at least three times.
Protocol for MCF-7 cells: as §1, §2
Protocol for MDA-MB-231 cells: as §1, §2
Protocol for MDA-MB-436 cells: as §1, §2

On to `O=C(c1cc(Cc2n[nH]c(=O)c3ccccc23)ccc1F)N1CCN(C(=O)C2CC2)CC1` [Olaparib, olaparib, reference compound], for which the clonogenicity result in experiment [1] (BRCA1- and HRR-deficient MDA-MB-436 cells) is listed as “reduced the clonogenicity”; in experiment [1] (MDA-MB-231 and MDA-MB-468 cells) it was “this effect was not observed”. Moreover, the “mRNA levels of CCL5 and CXCL10” value in the experiment on CCL5 and CXCL10 mRNA was “rise in the mRNA levels of CCL5 and CXCL10”. Further, the IC50 was above 25 µM in the experiment on MCF-7 cells; 28 ± 3.48 µM with MCF-10A cells; 8.08 ± 2.02 µM in the experiment with MDA-MB-436 cells; 3.24 ± 2.2 µM in the experiment with MDA-MB-231 cells; 14.5 ± 2.44 µM in the experiment on MDA-MB-468 cells.

On to “anti-PD-L1: anti-PD-L1 antibodies (Atezolizumab, Clone No.: 2B11D11), immune checkpoint blockade”, for which, in the experiment on 4T1 tumors, the tumor growth entry is “restricted tumor growth”.
